Results from patent US20020173468A1, “MODIFIED CYTOSTATIC AGENTS” (priority 1996, published 2002).
Where a name gives a salt, the structure may show the parent alone.

Experiments:
Assay type in all cases: cell-based
[1] = tested on: mouse bone marrow stem cells; test: Inhibition of the CSF-induced proliferation of mouse bone marrow stem cells (colony formation); details: recombinant murine GM-CSF, 7 days; for IC50: Mus musculus, 168 h
Description: 2. Haematopoietic Activity of Conjugates in Comparison with the Basic Active Compound
Bone marrow cells were rinsed from mouse femurs. 10^5 cells were incubated in McCoy 5A medium (0.3% agar) together with recombinant murine GM-CSF (Genzyme; stem cell colony formation) and the substances (10^−4 to 100 μg/ml) at 37° C. and 7% CO2. 7 days later, the colonies ([…]50 cells) and clusters (17-50 cells) were counted.

[2] = tested on: HT 29 human colonic tumour cell line; test: Growth inhibition test (MTT) for cytotoxic properties, HT 29; details: HT 29 cells
Description: (§1) 1. Growth Inhibition Test for the Determination of Cytotoxic Properties
(§2) They were then trypsinized and taken up in RPMI plus 10% FCS to give a cell count of 50,000 cells/ml. 100 μl of cell suspension/well were added to a 96 microwell plate and incubated for 1 day at 37° C. in a CO2 incubator. A further 100 μl of RPMI medium and 1 μl of DMSO were then added with the test substances. The growth was checked after day 3 and day 6. To do this, 40 μl of MTT solution (3-(4,5-dimethylthiazol-2-yl)-2,5-diphenyl-tetrazolin bromide) were added to each microwell at a starting concentration of 5 mg/ml of H2O. Incubation was carried out at 37° C. for 5 hours in the CO2 incubator. The medium was then aspirated and 100 μl of i-propanol/well were added. After shaking for 30 min with 100 μl of H2O, the extinction was measured at 540 nm using a Titertek Multiskan MCC/340 (flow).
(§3) The cytotoxic action is indicated in Table 1 as an IC50 value in each case for the SW 480 and HT 29 and B16F10 cell lines: […]

[3] = tested on: B16F10 mouse melanoma cell line; test: Growth inhibition test (MTT) for cytotoxic properties, B16F10; details: B16F10 cells
Description: as §1, §2, §3

[4] = tested on: SW 480 human colonic tumour cell line; test: Growth inhibition test (MTT) for cytotoxic properties, SW 480; details: SW 480 cells
Description: as §1, §2, §3

CC[C@@]1(O)C(=O)OCc2c1cc1n(c2=O)Cc2cc3ccccc3nc2-1 [Camptothecin, 20(S)-Camptothecin, reference compound]
IC50 [1]: 0.4 ng/mL

CC[C@@]1(OC(=O)C(C)NC(=O)C(CCCCN)NC(=S)Nc2ccc(O)cc2)C(=O)OCc2c1cc1n(c2=O)Cc2cc3ccccc3nc2-1 (stereo partly drawn) [4.1), 20-O-[N^α-(4-Hydroxy-phenylamino-thiocarbonyl)-lysyl-alanyl]-camptothecin]
IC50 [2]: 20 nM
IC50 [3]: 100 nM
IC50 [4]: 10 nM

CC(NC(=S)Nc1ccc(O)cc1)C(=O)NC1C=CCC2CN(c3c(F)cc4c(=O)c(C(=O)O)cn(C5CC5)c4c3Cl)CC21 (racemic) [2.1), N-[N-(4-Hydroxy-phenylamino-thiocarbonyl)-alanyl]-quinolone-a]
IC50 [2]: 9000 nM
IC50 [3]: 9000 nM
IC50 [4]: 20000 nM

Cl.NCCCCC(NC(=S)Nc1ccc(O)cc1)C(=O)NC1C=CCC2CN(c3c(F)cc4c(=O)c(C(=O)O)cn(C5CC5)c4c3Cl)CC21 (racemic) [2.4), N-[N^α-(4-Hydroxy-phenylamino-thiocarbonyl)-lysyl]-quinolone-a, hydrochloride]
IC50 [2]: 900 nM
IC50 [3]: 1000 nM
IC50 [4]: 800 nM
IC50, inhibition of the CSF-induced proliferation of mouse bone marrow stem cells [1]: 60.0 ng/mL

O=C(O)c1cn(C2CC2)c2c(Cl)c(N3CC4CC=CC(NC(=O)C(CCCCNC(=S)Nc5ccc(O)cc5)NC(=S)Nc5ccc(O)cc5)C4C3)c(F)cc2c1=O (racemic) [2.5), N-[N^α,N^ε-bis-(4-Hydroxy-phenylamino-thiocarbonyl)-D-lysyl]-quinolone-a]
IC50 [2]: > 200000 nM
IC50 [3]: 200000 nM
IC50 [4]: 200000 nM

NCCCCC(NC(=S)Nc1ccc(C(=O)O)cc1)C(=O)NC1C=CCC2CN(c3c(F)cc4c(=O)c(C(=O)O)cn(C5CC5)c4c3Cl)CC21 (racemic) [2.9), N-[N^α-(4-Carboxy-phenylamino-thiocarbonyl)-lysyl]-quinolone-a]
IC50 [2]: 2000 nM
IC50 [3]: 1000 nM
IC50 [4]: 2000 nM

CCC1(OC(=O)[C@@H](NC(=O)[C@H](CCCCN)NC(=S)Nc2ccc(OC)cc2)C(C)C)C(=O)OCc2c1cc1n(c2=O)Cc2cc3ccccc3nc2-1 (stereo partly drawn) [4.14), 20-O-[N^α-(4-Methoxy-phenylamino-thiocarbonyl)-lysyl-valyl]-camptothecin, hydrochloride]
IC50 [2]: 75 nM
IC50 [3]: 750 nM
IC50 [4]: 160 nM

CC(NC(=S)Nc1ccc(O)cc1)C(=O)NC1C=CCC2CN(c3c(F)cc4c(=O)c(C(=O)O)cn(C5CC5)c4c3Cl)CC21 (racemic) [2.2), N-[N-(4-Hydroxy-phenylamino-thiocarbonyl)-D-alanyl]-quinolone-a]
IC50 [2]: 6000 nM
IC50 [3]: 4000 nM
IC50 [4]: 15000 nM

CCC1(OC(=O)C(NC(=O)C(CCCCN)NC(=S)Nc2cccc(OC)c2)C(C)C)C(=O)OCc2c1cc1n(c2=O)Cc2cc3ccccc3nc2-1 (stereo not drawn) [4.15), 20-O-[N^α-(3-Methoxy-phenylamino-thiocarbonyl)-lysyl-valyl]-camptothecin, hydrochloride]
IC50 [2]: 60 nM
IC50 [3]: 200 nM
IC50 [4]: 90 nM

CCC1(OC(=O)C(CO)NC(=O)C(CCCCNC(=S)Nc2ccc(O)cc2)NC(=S)Nc2ccc(O)cc2)C(=O)OCc2c1cc1n(c2=O)Cc2cc3ccccc3nc2-1 (stereo not drawn) [4.23), 20-O-[N^α,N^ε-bis-(4-Hydroxy-phenylamino-thiocarbonyl)-lysyl-seryl]-camptothecin]
IC50 [2]: 70 nM
IC50 [3]: 150 nM
IC50 [4]: 80 nM

C[C@@H](NC(=O)[C@H](CCCCN)NC(=S)Nc1ccc(O)cc1)C(=O)Nc1ccc2nc3n(c(=O)c2c1)Cc1ccccc1-3 [1.4), N-[N^α-(4-Hydroxy-phenylamino-thiocarbonyl)-lysyl-D-alanyl]-batracylin]
IC50 [2]: 40000 nM
IC50 [3]: 30000 nM
IC50 [4]: 40000 nM

CC[C@@]1(OC(=O)C(CC(=O)O)NC(=O)C(CCCCNC(=S)Nc2ccc(O)cc2)NC(=S)Nc2ccc(O)cc2)C(=O)OCc2c1cc1n(c2=O)Cc2cc3ccccc3nc2-1 (stereo partly drawn) [4.22), 20-O-[N^α,N^ε-bis-(4-Hydroxy-phenylamino-thiocarbonyl)-lysyl-aspartyl]-camptothecin, sodium salt]
IC50 [2]: 40 nM
IC50 [3]: 100 nM
IC50 [4]: 40 nM

CCC1(OC(=O)C(NC(=O)C(Cc2c[nH]cn2)NC(=S)Nc2ccc(O)cc2)C(C)C)C(=O)OCc2c1cc1n(c2=O)Cc2cc3ccccc3nc2-1 (stereo not drawn) [4.19), 20-O-[N^α-(4-Hydroxy-phenylamino-thiocarbonyl)-histidyl-valyl]-camptothecin, hydrochloride]
IC50 [2]: 40 nM
IC50 [3]: 400 nM
IC50 [4]: 80 nM

CCC1(OC(=O)C(NC(=O)C(CCCCN)NC(=S)Nc2ccc([N+](=O)[O-])cc2)C(C)C)C(=O)OCc2c1cc1n(c2=O)Cc2cc3ccccc3nc2-1 (stereo not drawn) [4.16), 20-O-[N^α-(4-Nitro-phenylamino-thiocarbonyl)-lysyl-valyl]-camptothecin, hydrochloride]
IC50 [2]: 120 nM
IC50 [3]: 600 nM
IC50 [4]: 150 nM

NCCCCC(NC(=S)Nc1ccc(N=C=S)cc1)C(=O)NC1C=CCC2CN(c3c(F)cc4c(=O)c(C(=O)O)cn(C5CC5)c4c3Cl)CC21 (racemic) [2.8), N-[N^α-(4-Isothiocyanato-phenylamino-thiocarbonyl)-lysyl]-quinolone-a]
IC50 [2]: 100 nM
IC50 [3]: 100 nM
IC50 [4]: 200 nM

CCc1c2c(nc3ccc(O)cc13)-c1cc3c(c(=O)n1C2)COC(=O)C3(CC)OC(=O)[C@@H](NC(=O)[C@H](CCCCN)NC(=S)Nc1ccc(O)cc1)C(C)C (stereo partly drawn) [8), 7-Ethyl-10-hydroxy-20-O-[N^α-(4-hydroxy-phenylamino-thiocarbonyl)-lysyl-valyl]-camptothecin, hydrochloride]
IC50 [2]: 200 nM
IC50 [3]: 3000 nM
IC50 [4]: 150 nM

N[C@@H]1C=CC[C@@H]2CN(c3c(F)cc4c(=O)c(C(=O)O)cn(C5CC5)c4c3Cl)C[C@@H]21 (racemic) [Quinolone-a, 7-[(3aRS, 4RS, 7aSR)-4-amino-1,3,3a,4,7,7a-hexahydro-iso-indol-2-yl]-8-chloro-1-cyclopropyl-6-fluoro-1,4-dihydro-4-oxo-3-quinolinecarboxylic acid, reference compound]
IC50 [1]: 0.2 ng/mL

CCC1(OC(=O)[C@H](Cc2ccccc2)NC(=O)[C@H](CCCCNC(=S)Nc2ccc(O)cc2)NC(=S)Nc2ccc(O)cc2)C(=O)OCc2c1cc1n(c2=O)Cc2cc3ccccc3nc2-1 (stereo partly drawn) [4.11), 20-O-[N^α,N^ε-bis-(4-Hydroxy-phenylamino-thiocarbonyl)-lysyl-phenylalanyl]-camptothecin]
IC50 [2]: 30 nM
IC50 [3]: 200 nM
IC50 [4]: 60 nM

CCc1c2c(nc3ccccc13)-c1cc3c(c(=O)n1C2)COC(=O)C3(CC)OC(=O)C(NC(=O)C(CCCCN)NC(=S)Nc1ccc(O)cc1)C(C)C (stereo not drawn) [5.2), 7-Ethyl-20-O-[N^α-(4-hydroxy-phenylamino-thiocarbonyl)-lysyl-valyl]-camptothecin, hydrochloride]
IC50 [2]: 300 nM
IC50 [3]: 900 nM
IC50 [4]: 500 nM

CCC1(OC(=O)C(C)NC(=O)C(CCCCNC(=S)Nc2ccc(O)cc2)NC(=S)Nc2ccc(O)cc2)C(=O)OCc2c1cc1n(c2=O)Cc2cc3ccccc3nc2-1 (stereo not drawn) [4.9), 20-O-[N^α,N^ε-bis-(4-Hydroxy-phenylamino-thiocarbonyl)-lysyl-alanyl]-camptothecin]
IC50 [2]: 15 nM
IC50 [3]: 200 nM
IC50 [4]: 20 nM
IC50, inhibition of the CSF-induced proliferation of mouse bone marrow stem cells [1]: 22 ng/mL

NCCCC(NC(=S)Nc1ccc(O)cc1)C(=O)NC1C=CCC2CN(c3c(F)cc4c(=O)c(C(=O)O)cn(C5CC5)c4c3Cl)CC21 (racemic) [2.6), N-[N^α-(4-Hydroxy-phenylamino-thiocarbonyl)-ornithyl]-quinolone-a, hydrochloride]
IC50 [2]: 300 nM
IC50 [3]: 60 nM
IC50 [4]: 200 nM

COc1cccc2c1C(=O)c1c(O)c3c(c(O)c1C2=O)C[C@@](O)(C(=O)CO)C[C@@H]3O[C@H]1C[C@H](NC(=O)C(C)NC(=O)C(CCCCN)NC(=S)Nc2ccc(O)cc2)[C@H](O)[C@H](C)O1 (stereo partly drawn) [3), N-[N^α-(4-Hydroxy-phenylamino-thiocarbonyl)-lysyl-alanyl]-doxorubicin]
IC50 [2]: 2000 nM
IC50 [3]: 1000 nM
IC50 [4]: 3000 nM

CC[C@@]1(OC(=O)[C@@H](NC(=O)[C@H](CCCCN)NC(=S)Nc2cccc(O)c2)C(C)C)C(=O)OCc2c1cc1n(c2=O)Cc2cc3ccccc3nc2-1 [4.12), 20-O-[N^α-(3-Hydroxy-phenylamino-thiocarbonyl)-lysyl-valyl]-camptothecin, hydrochloride]
IC50 [2]: 30 nM
IC50 [3]: 200 nM
IC50 [4]: 40 nM

CC[C@@]1(OC(=O)C(NC(=O)C(CCCCN)NC(=S)Nc2ccc(C(=O)O)cc2)C(C)C)C(=O)OCc2c1cc1n(c2=O)Cc2cc3ccccc3nc2-1 (stereo partly drawn) [4.5), 20-O-[N^α-(4-Carboxy-phenylamino-thiocarbonyl)-lysyl-valyl]-camptothecin, hydrochloride]
IC50 [2]: 200 nM
IC50 [3]: 800 nM
IC50 [4]: 300 nM
